Assay [1] addresses T1, KMT9 (Homo sapiens, UniProt Q9Y5N5).
T1 sequence (Q9Y5N5 1-214): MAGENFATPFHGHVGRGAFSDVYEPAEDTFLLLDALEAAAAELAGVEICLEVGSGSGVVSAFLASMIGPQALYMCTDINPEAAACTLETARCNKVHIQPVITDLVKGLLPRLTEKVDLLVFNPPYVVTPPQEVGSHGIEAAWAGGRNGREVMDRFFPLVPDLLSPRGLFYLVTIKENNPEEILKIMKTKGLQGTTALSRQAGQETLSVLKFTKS
T1 sequence (Q9UI30 1-120 isoform Q9UI30-2 partner): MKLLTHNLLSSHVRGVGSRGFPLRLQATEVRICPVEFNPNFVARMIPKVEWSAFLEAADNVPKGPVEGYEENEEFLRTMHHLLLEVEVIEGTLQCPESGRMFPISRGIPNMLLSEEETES
As to the kind of experiment: KMT9 thermal shift assay (SyproOrange). It is filed as binding. The essentials: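 Recombinant KMT9 was incubated with compound and SyproOrange at 25° C in 50 mM BTP pH 8.5, 1 mM MgCl2, 1 mM DTT. It was then heated from 20° C to 95° C at 1° C per 15 s with fluorescence read each step. Tm came from a Boltzmann sigmoidal fit; ΔTm relative to DMSO control, binned in 5 K ranges.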

Assay [2] addresses T1, KMT9. As to the kind of experiment: KMT9 methyltransferase inhibition assay, MTaseGlo luminescence (from entry 155). It is filed as biochemical. The conditions noted are these: 100 nM KMT9, 5 μM ETF1, 1 μM SAM. In outline: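 KMT9 (100 nM final) pre-incubated with inhibitor for 15 min at room temperature, then reacted with 5 μM ETF1 and 1 μM SAM for 2 h at 30° C. at 2% DMSO final. MTaseGlo luminescence read after 60 min detection; IC50 reported in four potency bins.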

The target in assay [3] is T1, KMT9. As to the kind of experiment: Microscale thermophoresis (MST) KMT9 binding. In outline:
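His-tagged KMT9 (20 nM), RED-Tris-NTA labelled, titrated with varying compound concentrations in 25 mM HEPES pH 7.5, 100 mM NaCl, 1 mM DTT, 0.05% Tween. MST at 40% MST and 100% LED power, Nano-RED excitation; Kd binned A ≤10 nM, B 10–100, C 100–1000, D >1000 nM.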
Background: In MST a laser heats a spot of the sample, and binding alters the fluorescence response.

The mark [4] stands for this setting: 500 µM compound, 2 μM KMT9, read-out: Thermal shift (ΔTm).
Setting [5] is: MTaseGlo procedure (entries from 155), read-out: Inhibition (IC50).
Setting [6] is: His-tag labelled KMT9 20 nM, read-out: MST (Kd).
Where [7] appears, read: ΔTm class, 500 uM compound, 2 μM KMT9, read-out: Thermal shift.
[8] abbreviates: IC50 class, MTaseGlo procedure (entries from 155 on), read-out: Inhibition.
Setting [9] is: His-tag labelled KMT9 20 nM, Kd class, read-out: MST.
[10] abbreviates: ΔTm, 500 µM compound, 2 μM KMT9, 5X SO, read-out: Thermal shift.
Where [11] appears, read: from entry 155: MTaseGlo assay, read-out: Inhibition.
Where [12] appears, read: microscale thermophoresis, His-tag labelled KMT9 (20 nM), read-out: MST.

Where two headings read alike, the source gives them in different places.

As to `Nc1nc(Cl)nc2c1c(-c1nc(Cc3ccccc3)cs1)cn2[C@@H]1C[C@H](C2CCN(C[C@H]3CCOC3)CC2)[C@@H](O)[C@H]1O` [Compound 521R, (1R,2S,3R,5R)-3-(4-amino-5-(4-benzylthiazol-2-yl)-2-chloro-7H-pyrrolo[2,3-d]pyrimidin-7-yl)-5-(1-(((R)-tetrahydrofuran-3-yl)methyl)piperidin-4-yl)cyclopentane-1,2-diol], the ΔTm at 500 µM on KMT9 [1] (setting [4]) lay within 15 to 20 °C. Also, the IC50 at KMT9 [2] (setting [5]) is 1000 to 10000 nM. Further, the Kd on KMT9 [3] (setting [6]) is 10 to 100 nM.
Taken in the same sequence, the figures for `CNc1nc(Cl)nc2c1ccn2[C@@H]1C[C@H](c2ccc(O)cc2)[C@@H](O)[C@H]1O` [Compound 656, (1R,2S,3R,5R)-3-(2-chloro-4-(methylamino)-7H-pyrrolo[2,3-d]pyrimidin-7-yl)-5-(4-hydroxyphenyl)cyclopentane-1,2-diol] were at most 10 °C, 1000 to 10000 nM and 10 to 100 nM.
For the molecule `COc1cc(-c2cnsc2)cc([C@H]2C[C@@H](n3ccc4c(N)nc(Cl)nc43)[C@H](O)[C@@H]2O)c1` [Compound 667, (1R,2S,3R,5R)-3-(4-amino-2-chloro-7H-pyrrolo[2,3-d]pyrimidin-7-yl)-5-(3-(isothiazol-4-yl)-5-methoxyphenyl)cyclopentane-1,2-diol], the ΔTm at 500 µM at KMT9 [1] (setting [4]) fell in the range of 10 to 15 °C. In addition, the IC50 at KMT9 [2] (setting [5]) is 1000 to 10000 nM. The Kd at KMT9 [3] (setting [6]) lay within 10 to 100 nM.
On to `NCc1cccc([C@H]2C[C@@H](n3ccc4c(N)nc(Cl)nc43)[C@H](O)[C@@H]2O)c1` [Compound 660, (1R,2S,3R,5R)-3-{4-Amino-2-chloropyrrolo[2,3-d]pyrimidin-7-yl}-5-[3-(aminomethyl)phenyl]cyclopentane-1,2-diol], for which the ΔTm at 500 µM at KMT9 [1] (setting [4]) fell in the range of 15 to 20 °C. Besides, the IC50 on KMT9 [2] (setting [5]) is below 100 nM. The Kd on KMT9 [3] (setting [6]) was at most 10 nM.
On to `CN(CCCNCCc1ccc(F)cc1)C[C@H]1C[C@@H](n2cc(-c3nccs3)c3c(N)nc(Cl)nc32)[C@H](O)[C@@H]1O` [Compound 648, (1R,2S,3R,5R)-3-[4-Amino-2-chloro-5-(1,3-thiazol-2-yl)pyrrolo[2,3-d]pyrimidin-7-yl]-5-{[(3-{[2-(4-fluorophenyl)ethyl]amino}propyl)(methyl)amino]methyl}cyclopentane-1,2-diol], for which the ΔTm at 500 µM on KMT9 [1] (setting [4]) is above 20 °C. Moreover, the IC50 on KMT9 [2] (setting [5]) is 100 to 1000 nM. Moreover, at KMT9 [3] (setting [6]), the Kd is at most 10 nM.
`COc1cc(Br)cc([C@H]2C[C@@H](n3ccc4c(N)nc(Cl)nc43)[C@H](O)[C@@H]2O)c1` [Compound 666, (1R,2S,3R,5R)-3-(4-amino-2-chloro-7H-pyrrolo[2,3-d]pyrimidin-7-yl)-5-(3-bromo-5-methoxyphenyl)cyclopentane-1,2-diol]: on KMT9 [1] (setting [4]), the ΔTm at 500 µM is 10 to 15 °C. The IC50 on KMT9 [2] (setting [5]) was in the range of 100 to 1000 nM. Further, at KMT9 [3] (setting [6]), the Kd was 10 to 100 nM.
In the case of `Nc1nc(Cl)nc2c1c(-c1nc(Cc3ccccc3)cs1)cn2[C@@H]1C[C@H](C2CCN(Cc3cccs3)CC2)[C@@H](O)[C@H]1O` [Compound 526, (1R,2S,3R,5R)-3-(4-amino-5-(4-benzylthiazol-2-yl)-2-chloro-7H-pyrrolo[2,3-d]pyrimidin-7-yl)-5-(1-(thiophen-2-ylmethyl)piperidin-4-yl)cyclopentane-1,2-diol], on KMT9 [1] (setting [4]), the ΔTm at 500 µM is 15 to 20 °C. Also, the IC50 on KMT9 [2] (setting [5]) fell in the range of 100 to 1000 nM. Moreover, the Kd at KMT9 [3] (setting [6]) was at most 10 nM.
Take `CN1CC=C([C@H]2C[C@@H](n3cc(-c4nccs4)c4c(N)nc(Cl)nc43)[C@H](O)[C@@H]2O)CC1` [Compound 493, (1R,2S,3R,5R)-3-(4-Amino-2-chloro-5-(thiazol-2-yl)-7H-pyrrolo[2,3-d]pyrimidin-7-yl)-5-(1-methyl-1,2,3,6-tetrahydropyridin-4-yl)cyclopentane-1,2-diol]: the ΔTm at 500 µM at KMT9 [1] (setting [4]) fell in the range of 15 to 20 °C. Besides, the IC50 on KMT9 [2] (setting [5]) was 100 to 1000 nM. Moreover, the Kd on KMT9 [3] (setting [6]) is at most 10 nM.
As for `CNc1nc(Cl)nc2c1ccn2[C@@H]1C[C@H](CNCCCNCCc2cccc(Oc3ccccc3)c2)[C@@H](O)[C@H]1O` [Compound 555, (1R,2S,3R,5R)-3-(2-chloro-4-(methylamino)-7H-pyrrolo[2,3-d]pyrimidin-7-yl)-5-(((3-((3-phenoxyphenethyl)amino)propyl)amino)methyl)cyclopentane-1,2-diol], the ΔTm at 500 µM at KMT9 [1] (setting [4]) was 15 to 20 °C. The IC50 at KMT9 [2] (setting [5]) fell in the range of 100 to 1000 nM. Also, the Kd on KMT9 [3] (setting [6]) lay in the range of 10 to 100 nM.
Turning to `CCc1cn([C@@H]2C[C@H](c3ccccc3)[C@@H](O)[C@H]2O)c2ncnc(N)c12` [Compound 396, (1R,2S,3R,5R)-3-(4-amino-5-ethyl-7H-pyrrolo[2,3-d]pyrimidin-7-yl)-5-phenylcyclopentane-1,2-diol], at KMT9 [1] (setting [7]), the ΔTm at 500 µM is at most 10 °C. For the same molecule, at KMT9 [2] (setting [8]), the IC50 was above 10000 nM. Also, the Kd on KMT9 [3] (setting [9]) is above 1000 nM.
In the case of `Nc1ncnc2c1ccn2[C@@H]1C[C@H](c2cccc(O)c2)[C@@H](O)[C@H]1O` [Compound 404, (1R,2S,3R,5R)-3-(4-amino-7H-pyrrolo[2,3-d]pyrimidin-7-yl)-5-(3-hydroxyphenyl) cyclopentane-1,2-diol], the ΔTm at 500 µM at KMT9 [1] (setting [7]) is at most 10 °C. The IC50 at KMT9 [2] (setting [8]) is above 10000 nM. Further, the Kd at KMT9 [3] (setting [9]) was above 1000 nM.
For the molecule `Nc1ncnc2c1ccn2[C@@H]1C[C@H](c2cc(Cl)cc(Cl)c2)[C@@H](O)[C@H]1O` [Compound 384, (1R,2S,3R,5R)-3-(4-amino-7H-pyrrolo[2,3-a]pyrimidin-7-yl)-5-(3,5-dichlorophenyl) cyclopentane-1,2-diol], the ΔTm at 500 µM on KMT9 [1] (setting [10]) is at most 10 °C. Further, at KMT9 [2] (setting [11]), the IC50 is above 10000 nM. The Kd on KMT9 [3] (setting [12]) is above 1000 nM.
With `Nc1nc(Cl)nc2c1ccn2[C@@H]1C[C@H](c2ccc(O)cc2)[C@@H](O)[C@H]1O` [Compound 655], the ΔTm at 500 µM on KMT9 [1] (setting [4]) was 10 to 15 °C. Also, the IC50 at KMT9 [2] (setting [5]) lay in the range of 100 to 1000 nM. Also, the Kd at KMT9 [3] (setting [6]) is at most 10 nM.
For the molecule `CN1CCC([C@H]2C[C@@H](n3cc(-c4ccn(Cc5ccccc5)n4)c4c(N)nc(Cl)nc43)[C@H](O)[C@@H]2O)CC1` [Compound 502, (1R,2S,3R,5R)-3-(4-amino-5-(1-benzyl-1H-pyrazol-3-yl)-2-chloro-7H-pyrrolo[2,3-d]pyrimidin-7-yl)-5-(1-methylpiperidin-4-yl)cyclopentane-1,2-diol], on KMT9 [1] (setting [10]), the ΔTm at 500 µM was above 20 °C. Moreover, the IC50 on KMT9 [2] (setting [11]) lay within 100 to 1000 nM. Moreover, the Kd at KMT9 [3] (setting [12]) was at most 10 nM.
For the molecule `Nc1ncnc2c1ccn2[C@@H]1C[C@H]([C@@H]2CCCN2)[C@@H](O)[C@H]1O` [Compound 399, (1R,2S,3R,5R)-3-(4-amino-7H-pyrrolo[2,3-a]pyrimidin-7-yl)-5-((S)-pyrrolidin-2-yl) cyclopentane-1,2-diol], the ΔTm at 500 µM at KMT9 [1] (setting [4]) is at most 10 °C. For the same molecule, the IC50 on KMT9 [2] (setting [5]) was above 10000 nM. For the same molecule, at KMT9 [3] (setting [6]), the Kd was above 1000 nM.
Consider `COc1csc(-c2cn([C@@H]3C[C@H](CNCCCNCCc4ccccc4)[C@@H](O)[C@H]3O)c3ncncc23)n1` [Compound 615, (1R,2S,3R,5R)-3-(5-(4-Methoxythiazol-2-yl)-7H-pyrrolo[2,3-d]pyrimidin-7-yl)-5-(((3-(phenethylamino)propyl)amino)methyl)cyclopentane-1,2-diol], for which the ΔTm at 500 µM at KMT9 [1] (setting [7]) was at most 10 °C. The IC50 on KMT9 [2] (setting [8]) was above 10000 nM. At KMT9 [3] (setting [9]), the Kd was above 1000 nM.
As to `Cn1cc([C@H]2C[C@@H](n3ccc4c(N)nc(Cl)nc43)[C@H](O)[C@@H]2O)cn1` [Compound 661, (1R,2S,3R,5R)-3-(4-Amino-2-chloro-7H-pyrrolo[2,3-d]pyrimidin-7-yl)-5-(1-methyl-1H-pyrazol-4-yl)cyclopentane-1,2-diol], at KMT9 [1] (setting [4]), the ΔTm at 500 µM was at most 10 °C. The IC50 at KMT9 [2] (setting [5]) was in the range of 1000 to 10000 nM. The Kd at KMT9 [3] (setting [6]) was 100 to 1000 nM.
For the molecule `COc1ccc([C@H]2C[C@@H](n3ccc4c(N)nc(Cl)nc43)[C@H](O)[C@@H]2O)cc1` [Compound 682, (1R,2S,3R,5R)-3-{4-Amino-2-chloropyrrolo[2,3-d]pyrimidin-7-yl}-5-(4-methoxyphenyl)cyclopentane-1,2-diol], the ΔTm at 500 µM at KMT9 [1] (setting [4]) is 10 to 15 °C. Also, the IC50 at KMT9 [2] (setting [5]) was 100 to 1000 nM. Besides, the Kd at KMT9 [3] (setting [6]) fell in the range of 10 to 100 nM.
Consider `Nc1ncnc2c1ccn2[C@@H]1C[C@H](c2cccc(-c3cscn3)c2)[C@@H](O)[C@H]1O` [Compound 654, (1R,2S,3R,5R)-3-{4-aminopyrrolo[2,3-d]pyrimidin-7-yl}-5-[3-(1,3-thiazol-4-yl)phenyl]cyclopentane-1,2-diol], for which, on KMT9 [1] (setting [7]), the ΔTm at 500 µM is at most 10 °C. Further, on KMT9 [2] (setting [8]), the IC50 was above 10000 nM. In addition, the Kd at KMT9 [3] (setting [9]) is above 1000 nM.

Source of the values: patent US20250188110A1, “SPECIFIC SMALL MOLECULE INHIBITORS THAT BLOCK KMT9 METHYLTRANSFERASE ACTIVITY AND FUNCTION” (ALBERT-LUDWIGS-UNIVERSITÄT FREIBURG, priority 2021, published 2025).
